Patent publication US8618114B2 (priority 2008, dated 2013)
Where a name gives a salt, the structure may show the parent alone.

What follows are compounds tested against T1, 5-HT6 receptor (Homo sapiens (Human), UniProt P50406) (assay: functional assay for serotonin 5-HT6 receptor inhibition (serotonin-induced intracellular cAMP, LANCE cAMP kit, HEK 293 cells)). Details: HEK 293 cells with expressed 5-HT6 receptor; reduction of serotonin-induced intracellular cAMP.
Format: cell-based
Description: Determination of antagonistic activity of compounds of the general formula 1 towards 5-HT6 receptors. Compounds of the general formula 1 were tested for their ability to prevent 5-HT6 receptors activation by serotonin. HEK 293 cells (cells of human embryo's kidney) with artificially expressed 5-HT6 receptor, activation of which by serotonin leads to increasing the concentration of intracellular cAMP, were used. The level of intracellular cAMP was determined using reagent kit LANCE cAMP (PerkinElmer) according to the method described by the manufacturer of the kit [http://las.perkinelmer.com/content/Manuals/MAN_LANCEcAMP384KitUser.pdf]. Effectiveness of the compounds was estimated by their ability to reduce the level of intracellular cAMP induced by serotonin. Table 4 presents IC50 values for the compounds of general formula 1 in the setting of functional assay for serotonin 5-HT6 receptor inhibition. The data given testify their moderate or high antagonistic activity.

T1 sequence (P50406 whole entry): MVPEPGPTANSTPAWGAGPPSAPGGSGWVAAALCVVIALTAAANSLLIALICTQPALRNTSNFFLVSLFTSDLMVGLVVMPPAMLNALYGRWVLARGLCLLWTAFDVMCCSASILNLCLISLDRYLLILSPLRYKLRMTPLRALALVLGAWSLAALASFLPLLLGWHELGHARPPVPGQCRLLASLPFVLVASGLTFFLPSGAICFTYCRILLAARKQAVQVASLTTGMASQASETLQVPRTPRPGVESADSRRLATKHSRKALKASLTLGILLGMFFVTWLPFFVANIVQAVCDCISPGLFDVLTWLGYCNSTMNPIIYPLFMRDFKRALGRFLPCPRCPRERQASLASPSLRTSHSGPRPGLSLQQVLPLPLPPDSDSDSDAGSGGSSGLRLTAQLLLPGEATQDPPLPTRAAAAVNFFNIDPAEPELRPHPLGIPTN

| Structure (SMILES) | IC50 [nM] |
| --- | --- |
| CNc1nn2c(C)c(Cl)c(C)nc2c1S(=O)(=O)c1ccccc1 [1.2(1)] | 52 |
| CNc1nn2c(N3CCOCC3)cc(C)nc2c1S(=O)(=O)c1ccccc1 [1.1.12(5)] | 197 |
| CNc1nn2c(N(C)CCN(C)C)cc(C)nc2c1S(=O)(=O)c1ccccc1 [1.2.12(12)] | 1860 |
| CNc1nn2c(N(C)CCN(C)C)cc(C)nc2c1S(=O)(=O)c1ccccc1 [1.2.12(11)] | 172 |
| CSc1nn2ccc(C)nc2c1S(=O)(=O)c1ccccc1 [1.1.2(1), 5-methyl-2-methylsulfanyl-3-phenylsulfonyl-pyrazolo[1,5-a]pyrimidine] | 450 |
| CNc1nn2c(C)c(CN(C)C)c(C)nc2c1S(=O)(=O)c1cccc(Cl)c1 [1.2.22(11).HCl] | 22 |
| CNc1nn2c(CO)cc(C)nc2c1S(=O)(=O)c1ccccc1 [1.2.6(1), 7-(hydroxymethyl)-5-methyl-2-methylamino-3-phenylsulfonyl-pyrazolo[1,5-a]pyrimidine] | 4 |
| CNc1nn2c(CN(C)C)cc(C)nc2c1S(=O)(=O)c1cccc(Cl)c1 [1.2.24(11).HCl] | 33 |
| CNc1nn2c(CN(C)C)cc(C)nc2c1S(=O)(=O)c1cccc(F)c1 [1.2.24(12).HCl] | 35 |
| CNc1nn2c(C)cc(COC)nc2c1S(=O)(=O)c1ccccc1 [1.2.5(1), 7-methyl-2-methylamino-5-(methoxymethyl)-3-phenylsulfonyl-pyrazolo[1,5-a]pyrimidine] | 4 |
| COCc1cc(C)n2nc(SC)c(S(=O)(=O)c3ccccc3)c2n1 [1.1.5(1), 7-methyl-2-methylsulfanyl-5-(methoxymethyl)-3-phenylsulfonyl-pyrazolo[1,5-a]pyrimidine] | 414 |
| CNc1nn2c(C)c(CCCN)c(C)nc2c1S(=O)(=O)c1ccccc1 [1.2.22(4).HCl] | 78 |
| CNc1nn2c(C)c(CCN(C)C)c(C)nc2c1S(=O)(=O)c1ccccc1 [1.2.22(14).HCl] | 56.4 |
| CNc1nn2c(C)cc(CN(C)C)nc2c1S(=O)(=O)c1cccc(F)c1 [1.2.23(12).HCl] | 70 |
| CNc1nn2c(CCN)cc(C)nc2c1S(=O)(=O)c1ccccc1 [1.2.24(3).HCl] | 30 |
| CSc1nn2c(C)ccnc2c1S(=O)(=O)c1ccc(F)c(Cl)c1 [1.1.3(5), 7-methyl-2-methylsulfanyl-3-(4-fluoro-3-chlorophenylsulfonyl)-pyrazolo[1,5-a]pyrimidine] | 156 |
| CNc1nn2ccc(C)nc2c1S(=O)(=O)c1ccccc1 [1.2.2(1), 5-methyl-2-methylamino-3-phenylsulfonyl-pyrazolo[1,5-a]pyrimidine] | 16 |
| CSc1nn2cccnc2c1S(=O)(=O)c1cccc(C)c1 [1.1.1(6)] | 2200 |
| CNc1nn2c(CN)cc(C)nc2c1S(=O)(=O)c1ccc(F)cc1 [1.2.24(2).HCl] | 22 |
| CSc1nn2cccnc2c1S(=O)(=O)c1ccc(F)c(Cl)c1 [1.1.1(4)] | 912 |
| CNc1nn2c(CN)cc(C)nc2c1S(=O)(=O)c1ccccc1 [1.2.24(1).HCl] | 15 |
| CNc1nn2c(CCN(C)C)cc(C)nc2c1S(=O)(=O)c1ccccc1 [1.2.24(14).HCl] | 899 |

| Structure (SMILES) | IC50 [nM] |
| --- | --- |
| CNc1nn2cccnc2c1S(=O)(=O)c1ccccc1 [1.2.1(1), 2-methylamino-3-phenylsulfonyl-pyrazolo[1,5-a]pyrimidine] | 76 |
| CSc1nn2cccnc2c1S(=O)(=O)c1cccc(Cl)c1 [1.1.1(3)] | 473 |
| CNc1nn2c(C)c(N(C)C)c(C)nc2c1S(=O)(=O)c1ccccc1 [1.2.22(24).HCl] | 6 |
| CNc1nn2c(C)cc(CN(C)C)nc2c1S(=O)(=O)c1ccccc1 [1.2.23(10).HCl] | 60 |
| CSc1nn2cccnc2c1S(=O)(=O)c1ccccc1 [1.1.1(1), 2-methylsulfanyl-3-phenylsulfonyl-pyrazolo[1,5-a]pyrimidine] | 5200 |
| CNc1nn2c(NC)cc(C)nc2c1S(=O)(=O)c1ccccc1 [1.2.12(1), 2,7-di(methylamino)-5-methyl-3-phenylsulfonyl-pyrazolo[1,5-a]pyrimidine] | 9 |
| CNc1nn2c(C)c(CN)c(C)nc2c1S(=O)(=O)c1cccc(F)c1 [1.2.22(6).HCl] | 25.2 |
| CSc1nn2c(CO)cc(C)nc2c1S(=O)(=O)c1ccccc1 [1.1.6(1), 7-(hydroxymethyl)-5-methyl-2-methylsulfanyl-3-phenylsulfonyl-pyrazolo[1,5-a]pyrimidine] | 73 |
| CNc1nn2c(C)c(CN(C)C)c(C)nc2c1S(=O)(=O)c1ccccc1 [1.2.22(10).HCl] | 26 |
| CNc1nn2c(C)cc(CN(C)C)nc2c1S(=O)(=O)c1cccc(Cl)c1 [1.2.23(11).HCl] | 67 |
| CNc1nn2c(N(C)C)cc(-c3cccnc3)nc2c1S(=O)(=O)c1ccccc1 [1.2.12(9), 7-dimethylamino-2-methylamino-5-(pyridin-3-yl)-3-phenylsulfonyl-pyrazolo[1,5-a]pyrimidine] | 13 |
| CSc1nn2c(C)c(Oc3cccnc3)c(C)nc2c1S(=O)(=O)c1ccccc1 [1.1(7)] | 514 |
| CNc1nn2c(C)cc(CN)nc2c1S(=O)(=O)c1ccc(F)cc1 [1.2.23(2).HCl] | 37 |
| COc1cc(-c2ccccn2)nc2c(S(=O)(=O)c3ccccc3)c(SC)nn12 [1.1.8(2), 2-methylsulfanyl-7-methoxy-5-(pyridin-2-yl)-3-phenylsulfonyl-pyrazolo[1,5-a]pyrimidine] | 30100 |
| CSc1nn2cccnc2c1S(=O)(=O)c1ccc(F)cc1 [1.1.1(7)] | 1870 |
| CNc1nn2c(N(C)C)cc(C)nc2c1S(=O)(=O)c1ccccc1 [1.2.12(2), 7-dimethylamino-5-methyl-2-methylamino-3-phenylsulfonyl-pyrazolo[1,5-a]pyrimidine] | 12 |
| CNc1nn2c(-c3ccccn3)cc(-c3ccccn3)nc2c1S(=O)(=O)c1ccccc1 [1.2(4)] | 723 |
| CNc1nn2c(CN(C)C)cc(C)nc2c1S(=O)(=O)c1ccccc1 [1.2.24(10).HCl] | 21 |
| CNc1nn2c(-c3cccnc3)cc(C)nc2c1S(=O)(=O)c1ccccc1 [1.2.9(7), 5-methyl-2-methylamino-7-(pyridin-3-yl)-3-phenylsulfonyl-pyrazolo[1,5-a]pyrimidine] | 341 |
| CNc1nn2c(-c3cccnc3)ccnc2c1S(=O)(=O)c1ccccc1 [1.2.9(2), 2-methylamino-7-(pyridin-3-yl)-3-phenylsulfonyl-pyrazolo[1,5-a]pyrimidine] | 1040 |
| CNc1nn2c(C)cc(-c3ccncc3)nc2c1S(=O)(=O)c1ccccc1 [1.2.8(8), 7-methyl-2-methylamino-5-(pyridin-4-yl)-3-phenylsulfonyl-pyrazolo[1,5-a]pyrimidine] | 4 |
| CSc1nn2ccc(C)nc2c1S(=O)(=O)c1ccc(F)c(Cl)c1 [1.1.2(5), 5-methyl-2-methylsulfanyl-3-(4-fluoro-3-chlorophenylsulfonyl)-pyrazolo[1,5-a]pyrimidine] | 187 |

Each compound was assayed against T1, 5-HT6 receptor (assay: competitive radioligand binding ([3H] Lysergic acid diethylamide) to serotonin 5-HT6 receptors, HeLa cell membranes). Details: read-out: IC50, competitive assay of serotonin 5-HT6 receptor inhibition; displacement of 1.5 nM [3H] Lysergic acid diethylamide, 120 min at 37° C.

| Structure (SMILES) | IC50 [nM] |
| --- | --- |
| CNc1nn2c(C)c(CC(=O)N(C)C)c(C)nc2c1S(=O)(=O)c1ccccc1 [1.2.19(1).CH3CO2H] | 15.3 |
| CCOC(=O)Cc1c(C)nc2c(S(=O)(=O)c3ccccc3)c(NC(C)C)nn2c1C [1.2.13(3)] | 1.28 |
| CNc1nn2c(N3CCOCC3)cc(C)nc2c1S(=O)(=O)c1ccccc1 [1.2.12(5), 5-methyl-2-methylamino-7-(morfolin-4-yl)-3-phenylsulfonyl-pyrazolo[1,5-a]pyrimidine] | 31 |
